Measurements from patent publication US11272841B2, “Indicator fluids, systems, and methods for assessing movement of substances within, to or from a cerebrospinal fluid, brain or spinal cord compartment of a cranio-spinal cavity of a human” (BRAINWIDESOLUTIONS AS, priority 2017, dated 2022).
Values joined by “and” are separate entries in the source; they are usually repeats but may differ in a detail not shown here. Equal entries are not always repeated. Marks after values point to notes of the source that are not given here.

Assay: Repeated standardized T1-weighted MRI: signal units (SU) in ROIs of CSF, venous space and brain tissue after intrathecal gadobutrol, iNPH versus reference patients (Tables 2-4, FIG. 14b, 16);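 for Max Increase in SU of T1 signal, numerical change: Gadobutrol 0.5 mL of 1.0 mmol/mL given intrathecally into CSF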;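 for Max Increase in SU of T1 signal, percentage change: Gadobutrol 0.5 mL of 1.0 mmol/mL given intrathecally into CSF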
Format: in vivo, human
Conditions: for Max Increase in SU of T1 signal, numerical change / Max Increase in SU of T1 signal, percentage change: one patient per row; for Average indication signal within brain tissue ROI: one individual, FIG. 14b
Protocol: The different features of Aspect 2 are based on novel in-vivo observations in humans. […] In the following paragraphs, these novel observations in humans are commented on in more detail. In these studies, the MRI contrast agent gadobutrol served as indicator fluid and MRI SUs were indication signals. MRI T1 weighted signal units were measured when gadobutrol was present within CSF after having been administered to the CSF compartment, and were compared with MR images having identical sequence parameter settings and with no gadobutrol present in CSF. […] With a MW of 605 Da, gadobutrol is a rather large molecule in comparison to the MW of water (H2O) molecule, which is 18 Da. Clearance of gadobutrol is then indicative of clearance of other substances with similar properties.
We explored both movement of the contrast agent within, to, and from the cranio-spinal cavity, including CSF, brain and spinal cord compartment, and from the cranio-spinal cavity to extra-cranial LNs. With gadobutrol present within CSF, blood level concentrations of contrast agents were determined at various time point. The repeated MRI acquisitions made it possible to create clearance curves for one or more pixels, defined by ROIs. ROIs were placed within CSF compartments, brain and spinal cord tissue compartments, and extracranial LN tissue compartments. By means of MRI, we could create graphic curves illustrating clearance of substances (clearance illustrating curves) for defined ROIs built up of a defied number of pixels for each individual. For details of said clearance curves, see FIG. 7. The establishment of clearance curves was dependent on repeated MRI acquisitions over a long period.
Using MRI SUs, we created clearance illustrating curves, see FIG. 7, for the individual patients as well as for groups of individuals. Tables 2-4 illustrate various examples of parameter values of the clearance illustrating curves.
Table 2, as discussed with FIG. 2, illustrates how maximum increase in SUs varies between individuals and patient groups. Tables 3 and 4 compare such clearance curve parameters from two patient groups, namely iNPH and reference (i.e. control) patients, illustrating inter-individual differences and differences between patient groups. These patient groups represent no limitation of the invention as it may be used in various patient groups such as Alzheimer's and dementia in general, brain tumor (e.g. astrocytoma), multiple sclerosis and inflammatory brain disease, stroke (brain infarction or bleeds), sleep disturbances, neurodegenerative disease, CSF circulation disorders, traumatic brain injury, neurometabolic diseases, glaucoma, chronic headache and migraine, and in assessment of ageing in general.
Even though perfect match of ROIs of repeated images may be difficult to obtain, the second aspect of the invention is facilitated by that image acquisition parameters at repeated MRI acquisitions are kept fixed and thus standardized. […] Further, to make best possible alignments of pixels, methods for alignment of repeated MRI acquisitions need to be implemented. Methods for alignment of repeated MRI images belong to prior art. Aids to improve alignment may incorporate landmark locations such as the cranial vault, pineal gland, and ventricular system.
Each image acquisition lasted 6 minutes and 29 seconds.

[1] = CSF space: Lateral Ventricle, iNPH
[2] = CSF space: Precentral sulcus, Reference
[3] = CSF space: Precentral sulcus, iNPH
[4] = CSF space: Sylvian fissure, Reference
[5] = CSF space: Sylvian fissure, iNPH
[6] = Central venous space: Sagittal sinus/confluence, Reference
[7] = Central venous space: Sagittal sinus/confluence, iNPH
[8] = Inferior frontal gyrus (IFG), REF
[9] = Inferior frontal gyrus (IFG), iNPH

O=C([O-])CN1CCN(CC(=O)[O-])CCN([C@H](CO)[C@H](O)CO)CCN(CC(=O)[O-])CC1.[Gd+3] (racemic) [gadobutrol]
Clearance coefficient (SU/min) [1]: −0.05 ± 0.04 SU/min | Clearance time [1]: 1115.1 ± 46.3 min | Enhancement coefficient (SU/min) [1]: 0.41 SU/min | Max increase (SU) [1]: 168.5 ± 99.8^b SU | Max reduction (SU) [1]: −57.3 ± 48.9 SU | Time to peak [1]: 843.4 ± 560.2 min | Clearance coefficient (SU/min) (CSF space: Pons, Reference): −0.25 ± 0.08 SU/min | Clearance time (CSF space: Pons, Reference): 1261.5 ± 137.0 min | Enhancement coefficient (SU/min) (CSF space: Pons, Reference): 10.8 SU/min | Max reduction (SU) (CSF space: Pons, Reference): −313.3 ± 105.3 SU | Time to peak (CSF space: Pons, Reference): 159.8 ± 148.9 min | Clearance coefficient (SU/min) (CSF space: Pons, iNPH): −0.15 ± 0.08^b SU/min | Clearance time (CSF space: Pons, iNPH): 1207.9 ± 114.8 min | Enhancement coefficient (SU/min) (CSF space: Pons, iNPH): 2.4 SU/min | Max reduction (SU) (CSF space: Pons, iNPH): −177.9 ± 95.5^b SU | Time to peak (CSF space: Pons, iNPH): 230.9 ± 98.4 min | Enhancement coefficient (SU/min) [2]: 0.29 SU/min | Max increase (SU) [2]: 87.8 ± 99.3 SU | Time to peak [2]: 475.0 ± 601.9 min | Enhancement coefficient (SU/min) [3]: 0.10 SU/min | Max increase (SU) [3]: 131.1 ± 94.1 SU | Time to peak (min) [3]: 1254.7 ± 483.8^b min | Clearance coefficient (SU/min) [4]: −0.12 ± 0.06 SU/min | Clearance time [4]: 1162.6 ± 78.1 min | Enhancement coefficient (SU/min) [4]: 0.9 SU/min | Max increase (SU) [4]: 204.2 ± 104.4 SU | Max reduction (SU) [4]: −133.0 ± 68.4 SU | Time to peak [4]: 258.6 ± 114.8 min | Clearance coefficient (SU/min) [5]: −0.06 ± 0.05^a SU/min | Clearance time [5]: 1123.7 ± 41.1 min | Enhancement coefficient (SU/min) [5]: 0.57 SU/min | Max increase (SU) [5]: 226.2 ± 100.2 SU | Max reduction (SU) [5]: −68.0 ± 51.2^a SU | Time to peak (min) [5]: 689.0 ± 536.3^a min | Clearance coefficient (SU/min) [6]: −0.008 ± 0.003 SU/min | Clearance time [6]: 1247.3 ± 175.9 min | Enhancement coefficient (SU/min) [6]: 0.41 SU/min | Max increase (SU) [6]: 7.4 ± 9.6 SU | Max reduction (SU) [6]: −9.5 ± 3.9 SU | Time to peak [6]: 524.4 ± 591.3 min | Clearance coefficient (SU/min) [7]: −0.01 ± 0.006 SU/min | Clearance time [7]: 1287.4 ± 150.9 min | Enhancement coefficient (SU/min) [7]: 0.16 SU/min | Max increase (SU) [7]: 8.1 ± 8.0 SU | Max reduction (SU) [7]: −12.1 ± 6.7 SU | Time to peak [7]: 350.2 ± 457.3 min | Max Increase in SU of T1 signal, numerical change (Frontal horn, REF): 23 SU and 7 (7%) SU and 4 SU and 4 (4%) SU and 3 (3%) SU and 9 SU and 17 SU | Max Increase in SU of T1 signal, percentage change (Frontal horn, REF): 37% and 7 (7%) and 3% and 4 (4%) and 3 (3%) and 8% and 21% | Max Increase in SU of T1 signal, numerical change (Frontal horn, iNPH): 13 SU and 103 SU and 35 SU and 76 SU and 92 SU and 50 SU and 2 (2%) SU and 49 SU and 53 SU and 42 SU and 8 SU and 19 SU and 21 SU | Max Increase in SU of T1 signal, percentage change (Frontal horn, iNPH): 15% (2×) and 204% and 40% and 159% and 131% and 98% and 2 (2%) and 126% and 110% and 70% and 22% and 23% | Max Increase in SU of T1 signal, numerical change [8]: 68 SU and 5 (5%) SU and 24 SU and 13 SU and 23 SU and 37 SU and 18 SU | Max Increase in SU of T1 signal, percentage change [8]: 80% and 5 (5%) and 27% and 14% and 25% and 41% and 21% | Max Increase in SU of T1 signal, numerical change [9]: 70 SU and 56 SU and 32 SU and 51 SU and 74 SU and 21 SU and 24 SU and 36 SU and 59 SU and 10 SU (2×) and −1 (−1%) SU and 25 SU | Max Increase in SU of T1 signal, percentage change [9]: 83% and 68% (2×) and 38% and 63% and 95% and 23% and 31% and 46% and 12% and −1 (−1%) and 11% and 28% | Max Increase in SU of T1 signal, numerical change (Precentral gyrus, REF): 10 SU and 1 (1%) SU and 8 SU and 2 (2%) SU and 6 SU and 34 SU and 3 SU | Max Increase in SU of T1 signal, percentage change (Precentral gyrus, REF): 12% and 1 (1%) and 9% and 2 (2%) and 7% and 41% and 4% | Max Increase in SU of T1 signal, numerical change (Precentral gyrus, iNPH): 28 SU and 7 SU and 7 (7%) SU and 2 (2%) SU (2×) and 18 SU and 5 (5%) SU and 8 SU and 2 SU and 6 SU (2×) and 4 SU and 3 SU | Max Increase in SU of T1 signal, percentage change (Precentral gyrus, iNPH): 32% and 8% and 7 (7%) and 2 (2%) (2×) and 22% and 5 (5%) and 10% and 3% and 7% (2×) and 5% and 4% | Max Increase in SU of T1 signal, numerical change (Thalamus, REF): 23 SU and 4 (4%) SU and 3 SU and 2 (2%) SU and 13 (13%) SU (2×) and 8 SU | Max Increase in SU of T1 signal, percentage change (Thalamus, REF): 26% and 4 (4%) and 2% and 2 (2%) and 13 (13%) (2×) and 9% | Max Increase in SU of T1 signal, numerical change (Thalamus, iNPH): 16 SU and 23 SU and 9 SU (2×) and 14 SU and 25 SU and 4 (4%) SU and 10 SU and 19 SU and 7 SU and 2 (2%) SU and 12 SU (2×) | Max Increase in SU of T1 signal, percentage change (Thalamus, iNPH): 18% and 24% and 11% (2×) and 17% and 28% and 4 (4%) and 12% and 21% and 8% and 2 (2%) and 14% and 13% | Max Increase in SU of T1 signal, numerical change (brain tissue Pons, REF): 20 SU and 5 (5%) SU (2×) and 3 (3%) SU and 9 (9%) SU and 7 (7%) SU and 9 SU | Max Increase in SU of T1 signal, percentage change (brain tissue Pons, REF): 21% and 5 (5%) (2×) and 3 (3%) and 9 (9%) and 7 (7%) and 10% | Max Increase in SU of T1 signal, numerical change (brain tissue Pons, iNPH): 17 (17%) SU and 24 (24%) SU and 15 SU and 21 SU and 14 (14%) SU and 4 (4%) SU (2×) and 9 SU (2×) and 18 (18%) SU and 3 (3%) SU and 2 (2%) SU and 6 (6%) SU | Max Increase in SU of T1 signal, percentage change (brain tissue Pons, iNPH): 17 (17%) and 24 (24%) and 16% and 24% and 14 (14%) and 4 (4%) (2×) and 10% (2×) and 18 (18%) and 3 (3%) and 2 (2%) and 6 (6%) | SU within ROI (entorhinal cortex, FIG. 16h, intrathecal gadobutrol present for 24 hours (46 SU without)): 136 SU | Average indication signal within brain tissue ROI (3 hours after intrathecal gadobutrol (80 SU without gadobutrol)): 83 SU | Average indication signal within brain tissue ROI (9 hours after intrathecal gadobutrol): 103 SU | Average indication signal within brain tissue ROI (24 hours after intrathecal gadobutrol): 107 SU | SU within ROI (subcortical area of entorhinal cortex, FIG. 16f, intrathecal gadobutrol present for 24 hours (109 SU without)): 180 SU
